Experimental data as given in the NIST ThermoML archive (doi:10.1016/j.jct.2008.10.007).

Experiments:
[1] = excess molar enthalpy (molar enthalpy of mixing); xn = mol fraction of the nth substance listed; conditions: 298.15 K, 101 kPa, Liquid, Calvet calorimetry
[2] = xn = mol fraction of the nth substance listed; conditions: 298.15 K, 101 kPa, Liquid, Vibrating tube method
[3] = 298.15 K; 101 kPa; Liquid; Vibrating tube method

CCCOC(=O)CCC [propyl butanoate] + ClCCCl
Conditions	excess molar enthalpy [kcal/mol]	mass density [kg/m3]
[1], x1 = 0.0365	-0.00837	–
[1], x1 = 0.0999	-0.0229	–
[1], x1 = 0.1556	-0.0363	–
[1], x1 = 0.2176	-0.0526	–
[1], x1 = 0.281	-0.0684	–
[1], x1 = 0.343	-0.0851	–
[1], x1 = 0.3848	-0.0951	–
[1], x1 = 0.4055	-0.098	–
[1], x1 = 0.4534	-0.106	–
[1], x1 = 0.5266	-0.109	–
[1], x1 = 0.6369	-0.0997	–
[1], x1 = 0.7616	-0.0746	–
[1], x1 = 0.8961	-0.0399	–
[2], x1 = 0.0329	–	1222.22
[2], x1 = 0.065	–	1200.67
[2], x1 = 0.1029	–	1176.79
[2], x1 = 0.1385	–	1155.7
[2], x1 = 0.1815	–	1132.09
[2], x1 = 0.2225	–	1110.75
[2], x1 = 0.2703	–	1087.77
[2], x1 = 0.3191	–	1065.93
[2], x1 = 0.3743	–	1043.05
[2], x1 = 0.4285	–	1022.26
[2], x1 = 0.4904	–	1000.19
[2], x1 = 0.556	–	978.67
[2], x1 = 0.628	–	956.91
[2], x1 = 0.7087	–	934.51
[2], x1 = 0.7989	–	911.8
[2], x1 = 0.8938	–	890.06
[2], x1 = 1	–	867.9

CCCOC(C)=O [propyl ethanoate]
Conditions	mass density [kg/m3]
[3]	882.08

CCCOC=O [propyl methanoate]
Conditions	mass density [kg/m3]
[3]	899.81

CCCOC=O [propyl methanoate] + ClCCCCCCCl
Conditions	excess molar enthalpy [kcal/mol]	mass density [kg/m3]
[1], x1 = 0.0891	0.021	–
[1], x1 = 0.2066	0.0373	–
[1], x1 = 0.3241	0.049	–
[1], x1 = 0.4164	0.0523	–
[1], x1 = 0.4832	0.0504	–
[1], x1 = 0.5353	0.0473	–
[1], x1 = 0.5847	0.0433	–
[1], x1 = 0.6323	0.039	–
[1], x1 = 0.6975	0.0323	–
[1], x1 = 0.7658	0.0249	–
[1], x1 = 0.8389	0.0165	–
[1], x1 = 0.9059	0.00908	–
[1], x1 = 0.9621	0.00382	–
[2], x1 = 0.0861	–	1054
[2], x1 = 0.1676	–	1044.21
[2], x1 = 0.2459	–	1034.25
[2], x1 = 0.3157	–	1024.9
[2], x1 = 0.3867	–	1014.88
[2], x1 = 0.4515	–	1005.28
[2], x1 = 0.5124	–	995.82
[2], x1 = 0.6287	–	976.43
[2], x1 = 0.6818	–	966.95
[2], x1 = 0.7826	–	947.72
[2], x1 = 0.8311	–	937.83
[2], x1 = 0.8777	–	927.92
[2], x1 = 0.9609	–	909.1
[2], x1 = 1	–	899.81
